The nature of this assay: Inhibition of full-length (FL)-PRMT5:MEP50 enzyme complex (unknown origin) expressed in Sf21 cells assessed as reduction in methylation activity using the N-terminus of H4 histone derived substrate peptide H4R3(Me1) by PRMT5:MEP50 biochemical assay. Also on record: species or system Homo sapiens.

Structures are written as SMILES.

Broadly, the IC50 is the midpoint of a concentration-inhibition curve.

Take `Nc1ncnc2c1nc1n2[C@@H]2O[C@@H]([C@@H](O)[C@H]2O)[C@@H](c2ccc(F)c(F)c2)CCN1`: the IC50 is 5.7 µM.

Take `Nc1ncnc2c1nc1n2[C@@H]2O[C@@H]([C@@H](O)[C@H]2O)[C@@H](c2ccc(Cl)cc2)OCCO1`: the IC50 was 1 µM.
